From patent US20120220462A1, “INDUCING AGENT FOR PLANT ROOT” (Shiseido Company, Ltd., priority 2004, published 2012)

How the values were obtained:
Assay type in all cases: in vivo
[1] = system: Hydrangea (variety name unknown) second node parts; assay: Evaluation Test 1: root inducing performance on cut second node parts of Hydrangea, sprayed, on laboratory dishes; details: 25° C. continuous light, 20 days, five specimens, water group 1.1
Experimental: The second node parts of Hydrangea (variety name unknown) were cut out in August and placed on laboratory dishes, on which filter paper was laid.
Aqueous solutions of the specific ketol fatty acid (Ia) (concentrations 100 μM and 200 μM) were prepared and sprayed by sprayers on said cut Hydrangea, which were then allowed to stand covered for 2 hours. Note that the control group was sprayed with pure water and allowed to stand in the same way as the specific ketol fatty acid (Ia). Thereafter, water was added and the resultant product allowed to stand at 25° C. under continuous light for 20 days.
The average number of roots grown were counted for five specimens in each group, whereby the average for the water treatment group was 1.1, the specific ketol fatty acid (Ia) 100 μM group was 3.2, and the 200 μM group 3.1.

[2] = system: Hydrangea (variety name unknown) branches including dormant buds; assay: Evaluation Test 2: root inducing performance on Hydrangea branch cuttings including dormant buds, in soil; details: for Weight with soil attached / No. of roots grown/specimen: one month at 25° C.; for Weight with soil attached: water treatment 1.5; for No. of roots grown/specimen: water treatment 2.1
Experimental: Branches of Hydrangea (variety name unknown) including dormant buds were cut to 5 cm or so lengths in December and were transplanted into trays filled with soil composed of red gravel and vermiculite (7:3). Water or a specific ketol fatty acid (Ia) (10 μM, 100 μM) was sprayed, the specimens were then cultured in a 25° C. biochamber (12 hour bright/dark cycle) for one month. The weights in the state with the soil attached, when pulling the cuttings from the soil and the number of roots grown were measured. Note that an increase in the weight with the soil attached accompanies improvement of the soil holding rate accompanying development of fibrous roots and the proliferation of leaf buds.

[3] = system: Prunus×yedoensis (cherry tree) cuttings; assay: Root inducing performance test for Prunus×yedoensis cuttings (survival); details: 10 branches, water 0%
Excerpt: 15 test groups including the root inducing agent of the present invention alone and combinations of the agent with other existing root inducing agents were used for a test of the root inducing performance for Prunus×yedoensis.
The existing root inducing agents used for the test were the indole inducing agent shown by the following formula (V) (hereinafter abbreviated as the “IBL”. See Japanese Patent Publication No. 10-77268A) and the commercially available root inducing agent Oxiberon (hereinafter abbreviated as “Oxy”, Made by Bayer CropScience).
Test Group (1): water, Test Group (2): KODA 10 μM, Test Group (3): KODA 100 μM, Test Group (4): Oxy, Test Group (5): IBL 50 ppm, Test Group (6): IBL 100 ppm, Test Group (7): KODA 10 μM+Oxy, Test Group (8): KODA 100 μM+Oxy, Test Group (9): KODA 10 μM+IBL 50 ppm, Test Group (10): KODA 100 μM+IBL 50 ppm, Test Group (11): KODA 10 μM+IBL 100 ppm, Test Group (12): KODA 100 μM+IBL 100 ppm, Test Group (13): KODA 10 μM+IBL 50 ppm+Oxy, Test Group (14): KODA 100 μM+IBL 50 ppm+Oxy, Test Group (15): KODA 100 μM+IBL 100 ppm+Oxy.
Branches of Prunus×yedoensis used for the test were purchased from Sumitomo Forestry Landscaping Co., Ltd. These were cut to lengths of 5 to 8 cm or so from the tips and transplanted into mixed soil in trays composed of red gravel and vermiculite blended in a 7:3 ratio. At this time, 10 branches were used for each test group. […]

[4] = system: Paraserianthes falcataria Becker cuttings; assay: Root inducing performance test for Paraserianthes falcataria Becker cuttings; details: Oxiberon 0, after two months
Excerpt: Paraserianthes falcataria Becker useful as a material for producing plywood is a tropical plant, but like other trees, cannot be transplanted by cutting as the trees age. The inventors tried transplanting Paraserianthes falcataria Becker, considered impossible to transplant by cuttings, using KODA and the existing root inducing agent Oxiberon (made by Bayer CropScience). For the cultivation soil, they used red gravel granules.

[5] = system: Hypericum chinense cuttings; assay: Root inducing performance test for Hypericum chinense cuttings
Experimental: In this Example 3, in the same way as in Example 2, the specific ketol fatty acid (Ia) was used to test the root inducing performance for Hypericum chinense.
The compositions of the root inducing agents and the root inducing test procedure used in the test groups were the same as in Example 2. As a result of the tests, it was learned that there was 100% survival of the cuttings of Hypericum chinense in the case of use of the root inducing agent (10 μM) and IBL (50 ppm).
Note that the asterisks at the tops of the bar graphs of FIG. 1 indicate the rate of risk in measurement of the significant difference. One indicates a rate of risk of 5% or less, two a rate of risk of 1% or less, and three a rate of risk of 0.5% or less.

What does the source list for `CC/C=C\C/C=C\CC(=O)C(O)CCCCCCCC(=O)O` (centres unmarked) [specific ketol fatty acid (Ia), 9-hydroxy-10-oxo-12(Z),15(Z)-octadecadienoic acid]?
average number of roots grown ([1]; 100 μM aqueous solution sprayed): 3.2; average number of roots grown ([1]; 200 μM aqueous solution sprayed): 3.1; Weight with soil attached ([2]; 10 μM sprayed): 6.8 g/specimen; No. of roots grown/specimen ([2]; 10 μM sprayed): 5.3; development of leaf buds ([2]; 10 μM, 100 μM sprayed, one month, read from Table II results): promotes development of leaf buds; Weight with soil attached ([2]; 100 μM sprayed): 4.4 g/specimen; No. of roots grown/specimen ([2]; 100 μM sprayed): 6.5; number of cuttings surviving seven weeks after the start of the test ([3]; Test Group (2): KODA 10 μM): 10%; number of cuttings surviving seven weeks after the start of the test ([3]; Test Group (3): KODA 100 μM): 10%; Maximum root length ([4]; KODA 10 (μm)): 27.3 mm; Root dried weight ([4]; KODA 10 (μm)): 1.8 mg; Root Inducing rate ([4]; KODA 10 (μm), sprayed): 44%; Maximum root length ([4]; KODA 100 (μm)): 5.3 mm; Root Inducing rate ([4]; KODA 100 (μm)): 11%; Root dried weight ([4]; KODA 100 (μm)): 2.9 mg; amount of root inducing compared with the water-treated group (FIG. 1) ([5]; Test Group (2): KODA 10 μM): clearly increased; amount of root inducing compared with the water-treated group (FIG. 1) ([5]; Test Group (3): KODA 100 μM): clearly increased
